Assay results published in patent publication US20090298781A1, “COMPOUNDS FOR THE INHIBITION OF APOPTOSIS” (CONSEJO SUPERIOR DE, priority 2005, published 2009).
“And” between values parts separate entries of the source, which are not always exact repeats. Equal values may be shown once.

Assays:
Type in all cases: cell-based
U937 cell line = assay: MTT assay, toxicity (cell viability), U937
Method: (§1) The MTT assay measures cell proliferation as well as reduction in cell viability when metabolic events lead to apoptosis or necrosis. It can also be used to assess the rate of survival of a given cell line when it is incubated in the presence of xenobiotics. The reduction of tetrazolium salts is accepted as a reliable way to analyse cell proliferation. The yellow tetrazolium MTT (3-(4,5-dimethylthiazolyl-2)-2,5-diphenyltetrazolium bromide) is reduced by metabolically active cells and results in the intracellular formation of purple formazan that can be spectrophotometrically measured after solubilisation with DMSO.
(§2) The MTT assay was used in this invention to assess the toxicity of compounds at different concentrations. To analyse their potential impairment in cell viability, compounds were added to Saos-2 and U937 cell lines at different concentrations and incubated at different times. Results are expressed by percentage cell viability.

Caspase activity, HeLa = assay: Caspase inhibition assay, HeLa; details: for inhibition at 1 µM / inhibition at 5 µM: Homo sapiens; for inhibition at 5 µM / % Caspase inhibition: 5 μM
[1] = tested on: Caspase activity, Saos-2 cell extracts; assay: Caspase inhibition assay, Saos-2 cell extracts; details: for inhibition at 1 µM: Homo sapiens; for % Caspase inhibition: 5 μM; for % Inh. caspase: 50 μM drug-eq.
Method: (§3) The time-dependent inhibition of caspase induced by the compounds described in this invention was analysed. […] Caspase activity was assayed using Saos-2 or U937 cell extracts and Ac-DEVD-afc (N-acetyl-Asp-Glu-Val-Asp-afc(7-amino-4-trifluoromethyl coumarin)) as substrate (20 μM). Caspase activity was continuously monitored by the liberation of fluorescent afc using a Cytofluor 4000 fluorimeter (excitation 400 nm; emission 508 nm) for 1 hour. The effect of the compounds on the caspase activity was expressed as the percentage of inhibition in the fluorescence signal of treated cells vs. the non-treated cells (control).

Saos-2 cell line = assay: MTT assay, toxicity (cell viability), Saos-2
Method: as §1, §2

[2] = tested on: Caspase activity, U937 cell extracts; assay: Caspase inhibition assay, U937 cell extracts; details: for inhibition at 1 µM / inhibition at 5 µM: Homo sapiens, U-937; for inhibition at 5 µM / % Caspase inhibition: 5 μM; for % Inh. caspase: 50 μM drug-eq.
Method: as §3

Caspase activity, U2-OS = assay: Caspase inhibition assay, U2-OS; details: for inhibition at 1 µM / inhibition at 5 µM: Homo sapiens, U2OS; for inhibition at 5 µM / % Caspase inhibition: 5 μM
[3] = tested on: Apaf-1 induced apoptosis, U937 cells; assay: Inhibition of Apaf-1-induced apoptosis, cellular assay, U937; details: U937 treated with apoptosome activator, 50 μM drug-eq
Method: (§4) The time-dependent inhibition of caspase induced by the compounds described in this invention was analysed. Cell lines were grown in the presence or absence of compounds (50 μM) at different times. Caspase activity was assayed using Saos-2 or U937 cell extracts and Ac-DEVD-afc (N-acetyl-Asp-Glu-Val-Asp-afc(7-amino-4-trifluoromethyl coumarin)) as substrate (20 μM). Caspase activity was continuously monitored by the liberation of fluorescent afc using a Cytofluor 4000 fluorimeter (excitation 400 nm; emission 508 nm) for 1 hour. The effect of the compounds on the caspase activity was expressed as the percentage of inhibition in the fluorescence signal of treated cells vs. the non-treated cells (control).
(§5) The activity of the compounds regards their specific target within the apoptotic machinery was assessed. Apaf-1 oligomerisation is a molecular event that leads to the activation of the apoptosome formation, which ends up in the induction of apoptosis. These experiments were performed in cell-free and in cellular assays.
(§6) For the cellular assays, Saos-2 and U937 cells were treated with an apoptosome activator (Nguyen and Wells, Proc. Natl. Acad. Sci. USA 2003, 100:7533-7538), which specifically induces Apaf-1 oligomerisation. […] The capacity of the compounds of inhibiting the Apaf-1 induced apoptosis was analysed by the inhibition of caspase activity (see above).

[4] = tested on: Apaf-1 induced apoptosis, Saos-2 cells; assay: Inhibition of Apaf-1-induced apoptosis, cellular assay, Saos-2; details: Saos-2 treated with apoptosome activator, 50 μM drug-eq
Method: as §4, §5, §6

## NC(=O)CN(CCc1ccc(Cl)cc1Cl)C(=O)C1CC(=O)N(CCc2ccc(Cl)cc2Cl)CC(=O)N1CCC(c1ccccc1)c1ccccc1 (stereo not shown) [I.1, 1-[2-(2,4-Dichlorophenyl)ethyl]-4-(3,3-diphenylpropyl)-3,7-dioxo[1,4]-diazepane-5-carboxylic acid carbamoylmethyl-[2-(2,4-dichlorophenyl)-ethyl]amide]
U937 cell line; U937, 24 h, 1 μM
  % Cell viability: 100%
U937 cell line; U937, 24 h, 5 μM
  % Cell viability: 98% and 90%
U937 cell line; U937, 24 h, 10 μM
  % Cell viability: 95% and 87%
U937 cell line; U937, 24 h, 25 μM
  % Cell viability: 59%
U937 cell line; U937, 24 h, 50 μM
  % Cell viability: 27%
U937 cell line; U937, 48 h, 1 μM
  % Cell viability: 100%
U937 cell line; U937, 48 h, 5 μM
  % Cell viability: 97% and 94%
U937 cell line; U937, 48 h, 10 μM
  % Cell viability: 99% and 83%
U937 cell line; U937, 72 h, 1 μM
  % Cell viability: 98%
U937 cell line; U937, 72 h, 5 μM
  % Cell viability: 89%
U937 cell line; U937, 72 h, 10 μM
  % Cell viability: 67%
Caspase activity, HeLa; 24 h
  inhibition at 1 µM: 29%
  inhibition at 5 µM: 31%
Caspase activity, HeLa; 48 h
  inhibition at 1 µM: 75%
  inhibition at 5 µM: 78%
Caspase activity, HeLa; 72 h
  inhibition at 1 µM: 34%
  inhibition at 5 µM: 33%
[1]; Saos-2, 24 h
  inhibition at 1 µM: 21%
[1]; Saos-2, 48 h
  inhibition at 1 µM: 17%
[1]; Saos-2, 72 h
  inhibition at 1 µM: 4%
Saos-2 cell line; Saos-2, 24 h, 1 μM
  % Cell viability: 99%
Saos-2 cell line; Saos-2, 24 h, 5 μM
  % Cell viability: 100%
Saos-2 cell line; Saos-2, 24 h, 10 μM
  % Cell viability: 96% and 100%
Saos-2 cell line; Saos-2, 24 h, 25 μM
  % Cell viability: 63%
Saos-2 cell line; Saos-2, 24 h, 50 μM
  % Cell viability: 19%
Saos-2 cell line; Saos-2, 48 h, 1 μM
  % Cell viability: 100% and 97%
Saos-2 cell line; Saos-2, 48 h, 5 μM
  % Cell viability: 100% and 94%
Saos-2 cell line; Saos-2, 48 h, 10 μM
  % Cell viability: 100% and 97%
Saos-2 cell line; Saos-2, 48 h, 25 μM
  % Cell viability: 19%
Saos-2 cell line; Saos-2, 48 h, 50 μM
  % Cell viability: 11%
Saos-2 cell line; Saos-2, 72 h, 1 μM
  % Cell viability: 89%
Saos-2 cell line; Saos-2, 72 h, 5 μM
  % Cell viability: 88%
Saos-2 cell line; Saos-2, 72 h, 10 μM
  % Cell viability: 80%
Saos-2 cell line; Saos-2, 72 h, 25 μM
  % Cell viability: 8%
[2]; U937, 24 h
  inhibition at 1 µM: 0%
  inhibition at 5 µM: 19%
[2]; U937, 48 h
  inhibition at 1 µM: 14%
  inhibition at 5 µM: 19%
[2]; U937, 72 h
  inhibition at 1 µM: 12%
  inhibition at 5 µM: 46%
Caspase activity, U2-OS; 24 h
  inhibition at 1 µM: 0%
  inhibition at 5 µM: 0%
Caspase activity, U2-OS; 48 h
  inhibition at 1 µM: 58%
  inhibition at 5 µM: 54%
Caspase activity, U2-OS; 72 h
  inhibition at 1 µM: 1%
  inhibition at 5 µM: 25%

## NC(=O)CN(CC1CCCO1)C(=O)C1CC(=O)N(CCc2ccc(Cl)cc2Cl)CC(=O)N1CCC(c1ccccc1)c1ccccc1 (stereo not shown) [I.4, 1-[2-(2,4-Dichlorophenyl)ethyl]-4-(3,3-diphenylpropyl)-3,7-dioxo[1,4]diazepane-5-carboxylic acid carbamoylmethyl(tetrahydrofuran-2-ylmethyl)amide]
U937 cell line; U937, 24 h, 1 μM
  % Cell viability: 100%
U937 cell line; U937, 24 h, 5 μM
  % Cell viability: 99%
U937 cell line; U937, 24 h, 10 μM
  % Cell viability: 87%
U937 cell line; U937, 48 h, 1 μM
  % Cell viability: 99%
U937 cell line; U937, 48 h, 5 μM
  % Cell viability: 94%
U937 cell line; U937, 48 h, 10 μM
  % Cell viability: 95%
Caspase activity, HeLa; 24 h
  inhibition at 1 µM: 48%
Caspase activity, HeLa; 48 h
  inhibition at 1 µM: 14%
Caspase activity, HeLa; 72 h
  inhibition at 1 µM: 35%
[1]; Saos-2, 24 h
  inhibition at 1 µM: 55%
[1]; Saos-2, 48 h
  inhibition at 1 µM: 9%
Saos-2 cell line; Saos-2, 24 h, 1 μM
  % Cell viability: 100%
Saos-2 cell line; Saos-2, 24 h, 5 μM
  % Cell viability: 97%
Saos-2 cell line; Saos-2, 24 h, 10 μM
  % Cell viability: 100%
Saos-2 cell line; Saos-2, 48 h, 1 μM
  % Cell viability: 100%
Saos-2 cell line; Saos-2, 48 h, 5 μM
  % Cell viability: 98%
Saos-2 cell line; Saos-2, 48 h, 10 μM
  % Cell viability: 99%
[2]; U937, 24 h
  inhibition at 1 µM: 0%
[2]; U937, 48 h
  inhibition at 1 µM: 12%
[2]; U937, 72 h
  inhibition at 1 µM: 0%
Caspase activity, U2-OS; 24 h
  inhibition at 1 µM: 0%
Caspase activity, U2-OS; 48 h
  inhibition at 1 µM: 23%
Caspase activity, U2-OS; 72 h
  inhibition at 1 µM: 54%

## COc1ccccc1CCN(CC(N)=O)C(=O)C1CC(=O)N(CCc2ccc(Cl)cc2Cl)CC(=O)N1CCC(c1ccccc1)c1ccccc1 (stereo not shown) [I.7, 1-[2-(2,4-Dichlorophenyl)ethyl]-4-(3,3-diphenylpropyl)-3,7-dioxo[1,4]diazepane-5-carboxylic acid carbamoylmethy-[2-(2-methoxyphenyl)ethyl]amide]
U937 cell line; U937, 24 h, 1 μM
  % Cell viability: 99%
U937 cell line; U937, 24 h, 5 μM
  % Cell viability: 95%
U937 cell line; U937, 24 h, 10 μM
  % Cell viability: 93%
U937 cell line; U937, 48 h, 1 μM
  % Cell viability: 100%
U937 cell line; U937, 48 h, 5 μM
  % Cell viability: 100%
U937 cell line; U937, 48 h, 10 μM
  % Cell viability: 97%
Caspase activity, HeLa; 24 h
  % Caspase inhibition: 6%
Caspase activity, HeLa; 48 h
  % Caspase inhibition: 7%
Caspase activity, HeLa; 72 h
  % Caspase inhibition: 11%
[1]; Saos-2, 24 h
  % Caspase inhibition: 0%
[1]; Saos-2, 48 h
  % Caspase inhibition: 24%
Saos-2 cell line; Saos-2, 24 h, 1 μM
  % Cell viability: 95%
Saos-2 cell line; Saos-2, 24 h, 5 μM
  % Cell viability: 99%
Saos-2 cell line; Saos-2, 24 h, 10 μM
  % Cell viability: 98%
Saos-2 cell line; Saos-2, 48 h, 1 μM
  % Cell viability: 100%
Saos-2 cell line; Saos-2, 48 h, 5 μM
  % Cell viability: 100%
Saos-2 cell line; Saos-2, 48 h, 10 μM
  % Cell viability: 100%
[2]; U937, 24 h
  % Caspase inhibition: 10%
[2]; U937, 48 h
  % Caspase inhibition: 8%
[2]; U937, 72 h
  % Caspase inhibition: 2%
Caspase activity, U2-OS; 24 h
  % Caspase inhibition: 0%
Caspase activity, U2-OS; 48 h
  % Caspase inhibition: 31%
Caspase activity, U2-OS; 72 h
  % Caspase inhibition: 33%

## Poly-L-glutamic acid-[1-[2-(2,4-Dichlorophenyl)ethyl]-3-(3,3-diphenyl-propyl)-3,7-dioxo[1,4]diazepane-5-carboxylic acid {[({[(5-amino-1-carbamoylpentylcarbamoyl)methyl]-carbamoyl}methyl)carbamoyl]methyl}-[2-(2,4-dichlorophenyl)ethyl]amide] conjugate [III.1]
U937 cell line; U937, 24 h, 20 μM drug-eq.
  % Cell viability: 98%
U937 cell line; U937, 24 h, 50 μM drug-eq.
  % Cell viability: 96%
U937 cell line; U937, 24 h, 100 μM drug-eq.
  % Cell viability: 84%
U937 cell line; U937, 24 h, 250 μM drug-eq.
  % Cell viability: 50%
U937 cell line; U937, 24 h, 500 μM drug-eq.
  % Cell viability: 27%
[1]; Saos-2, 24 h
  % Inh. caspase: 67%
[1]; Saos-2, 48 h
  % Inh. caspase: 72%
[1]; Saos-2, 72 h
  % Inh. caspase: 100%
[3]; 24 h
  % Inh. caspase activity: 27%
[3]; 48 h
  % Inh. caspase activity: 95%
Saos-2 cell line; Saos-2, 24 h, 20 μM drug-eq.
  % Cell viability: 96%
Saos-2 cell line; Saos-2, 24 h, 50 μM drug-eq.
  % Cell viability: 99%
Saos-2 cell line; Saos-2, 24 h, 100 μM drug-eq.
  % Cell viability: 93%
Saos-2 cell line; Saos-2, 24 h, 250 μM drug-eq.
  % Cell viability: 75%
Saos-2 cell line; Saos-2, 24 h, 500 μM drug-eq.
  % Cell viability: 35%
Saos-2 cell line; Saos-2, 48 h, 20 μM drug-eq.
  % Cell viability: 95%
Saos-2 cell line; Saos-2, 48 h, 50 μM drug-eq.
  % Cell viability: 87%
Saos-2 cell line; Saos-2, 48 h, 100 μM drug-eq.
  % Cell viability: 95%
Saos-2 cell line; Saos-2, 72 h, 20 μM drug-eq.
  % Cell viability: 86%
Saos-2 cell line; Saos-2, 72 h, 50 μM drug-eq.
  % Cell viability: 63%
Saos-2 cell line; Saos-2, 72 h, 100 μM drug-eq.
  % Cell viability: 68%
[2]; U937, 24 h
  % Inh. caspase: 74%
[2]; U937, 48 h
  % Inh. caspase: 85%
[2]; U937, 72 h
  % Inh. caspase: 100%
[4]; 24 h
  % Inh. caspase activity: 22%
[4]; 48 h
  % Inh. caspase activity: 54%
